From PubChem BioAssay (NCI)
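Cultured in 96-well plates, cells were exposed to test compound for 48 hours across five concentrations. GI50 = concentration required for 50% inhibition of growth. At the TGI there is no net growth.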

Key:
Assay in all cases: NCI anticancer screen, dose series, 48 h
SK-MEL-28 melanoma = test system: SK-MEL-28 melanoma
SF-268 CNS = test system: SF-268 CNS
OVCAR-4 ovarian = test system: OVCAR-4 ovarian
IGROV1 ovarian = test system: IGROV1 ovarian
SW-620 colon = test system: SW-620 colon
HOP-62 NSCLC = test system: HOP-62 NSCLC
COLO 205 colon = test system: COLO 205 colon
UACC-257 melanoma = test system: UACC-257 melanoma
UO-31 renal = test system: UO-31 renal
NCI-H460 lung = test system: NCI-H460 lung

| SMILES | TGI (SK-MEL-28 melanoma) [µM] | TGI (SF-268 CNS) [µM] | TGI (OVCAR-4 ovarian) [µM] | TGI (IGROV1 ovarian) [µM] | TGI (SW-620 colon) [µM] | TGI (HOP-62 NSCLC) [µM] | TGI (COLO 205 colon) [µM] | TGI (UACC-257 melanoma) [µM] | TGI (UO-31 renal) [µM] | TGI (NCI-H460 lung) [µM] | GI50 (SK-MEL-28 melanoma) [µM] | GI50 (SF-268 CNS) [µM] | GI50 (IGROV1 ovarian) [µM] | GI50 (SW-620 colon) [µM] | GI50 (HOP-62 NSCLC) [nM] | GI50 (COLO 205 colon) [µM] | GI50 (UACC-257 melanoma) [µM] | GI50 (UO-31 renal) [nM] | GI50 (NCI-H460 lung) [µM] |
| --- | --- | --- | --- | --- | --- | --- | --- | --- | --- | --- | --- | --- | --- | --- | --- | --- | --- | --- | --- |
| NC(N)=NCCCC(NCc1c2ccccc2[n+]([O-])c2ccccc12)C(=O)O (stereo not drawn) | > 100 | > 100 | > 100 | > 100 | > 100 | > 100 | > 100 | > 100 | 89.8 | > 100 | – | – | – | – | – | – | – | – | – |
| C=CCCCCn1c2ccccc2c2c(C)c3c[n+](C)ccc3c(C)c21 | 1.41 | 1.56 | 1.27 | 1.4 | 1.34 | 1.94 | 1.08 | 1.47 | 19.4 | – | – | – | – | – | – | – | – | – | – |
| NS(=O)(=O)c1ccc(N=Nc2nc3[nH]cnc(=S)c3[nH]2)cc1 | > 100 | > 100 | > 100 | > 100 | > 100 | > 51.1 | 7.09 | > 87.6 | > 43.8 | 10.1 | – | – | – | – | – | – | – | – | – |
| C[N+]1(CCCC[N+]2(C)CCCCCCC2)CCCCCCC1 | > 100 | > 100 | > 100 | > 100 | > 100 | > 100 | – | > 100 | > 100 | > 100 | – | – | – | – | – | – | – | – | – |
| Cc1n(-c2ccccc2)c2c([n+]1Cc1ccc([N+](=O)[O-])cc1)C(=O)c1ccccc1C2=O | 3.59 | 3.71 | 3.2 | 2.23 | 6.63 | 16.6 | 3.07 | 3.16 | 26.6 | 12.4 | – | – | – | – | – | – | – | – | – |
| CCN(CC)CCOCC1CCCN2CCCCC12 (stereo not drawn) | > 100 | > 100 | > 100 | – | > 100 | > 100 | > 100 | > 100 | > 100 | > 100 | – | – | – | – | – | – | – | – | – |
| Cc1cc(=O)[nH]c(NN2C(Cl)C(=O)C2c2c(O)ccc3ccccc23)n1 (stereo not drawn) | 44.1 | > 100 | 51.7 | > 100 | > 100 | 77 | 58.2 | > 100 | > 100 | 29.6 | – | – | – | – | – | – | – | – | – |
| c1ccc(C2=NN[C@H](c3cn(-c4ccccc4)nc3-c3ccccc3)C2)cc1 | > 100 | > 100 | – | > 100 | > 100 | 5.58 | > 100 | > 100 | > 100 | > 100 | 4.89 | 5.98 | 5.57 | 9.34 | 2160 | 6.55 | > 100 | 2870 | 4.26 |
| CCCC(=O)[O-].CCCC(=O)[O-].N.N.N.N.[Co+3].[O-][Cl+3]([O-])([O-])[O-] | > 100 | > 100 | > 100 | > 100 | > 100 | > 100 | > 100 | > 100 | > 100 | > 100 | – | – | – | – | – | – | – | – | – |
| COc1cc(O)c2c(c1O)C(=O)c1cc(C)ncc1C2=O | > 50 | > 50 | > 50 | > 50 | > 50 | > 50 | > 50 | 36.6 | 42.5 | > 50 | – | – | – | – | – | – | – | – | – |
| CCCCCCCSCC1OC(n2cnc3c(N)ncnc32)C(O)C1O (stereo not drawn) | > 100 | > 100 | 93 | 41.8 | 46.5 | – | 28.3 | 56.9 | – | 42.1 | – | – | – | – | – | – | – | – | – |
| Nc1nc(Sc2ccc([N+](=O)[O-])cn2)c2[nH]cnc2n1 | > 100 | > 100 | > 61.2 | 77.9 | > 100 | > 100 | 39 | > 100 | 24.7 | > 64.9 | – | – | – | – | – | – | – | – | – |
| Cc1n(CC(C)C)c2c([n+]1CC(=O)c1ccc([N+](=O)[O-])cc1)C(=O)c1ccccc1C2=O | 0.902 | < 0.0391 | 0.055 | 0.0102 | < 0.036 | 1.15 | < 0.01 | 0.0293 | 30.2 | 1.38 | – | – | – | – | – | – | – | – | – |
